The values below come from patent US10782295B2, “Cysteine-reactive ligand discovery in proteomes” (THE SCRIPPS RESEARCH INSTITUTE, priority 2013, dated 2020).

Assay [1] deals with T1, MMS19 (Homo sapiens, UniProt Q96T76).
T1 construct: directly in native proteomes; endogenous in cells; host or cells: MDA-MB-231
T1 sequence (Q96T76 1-1030): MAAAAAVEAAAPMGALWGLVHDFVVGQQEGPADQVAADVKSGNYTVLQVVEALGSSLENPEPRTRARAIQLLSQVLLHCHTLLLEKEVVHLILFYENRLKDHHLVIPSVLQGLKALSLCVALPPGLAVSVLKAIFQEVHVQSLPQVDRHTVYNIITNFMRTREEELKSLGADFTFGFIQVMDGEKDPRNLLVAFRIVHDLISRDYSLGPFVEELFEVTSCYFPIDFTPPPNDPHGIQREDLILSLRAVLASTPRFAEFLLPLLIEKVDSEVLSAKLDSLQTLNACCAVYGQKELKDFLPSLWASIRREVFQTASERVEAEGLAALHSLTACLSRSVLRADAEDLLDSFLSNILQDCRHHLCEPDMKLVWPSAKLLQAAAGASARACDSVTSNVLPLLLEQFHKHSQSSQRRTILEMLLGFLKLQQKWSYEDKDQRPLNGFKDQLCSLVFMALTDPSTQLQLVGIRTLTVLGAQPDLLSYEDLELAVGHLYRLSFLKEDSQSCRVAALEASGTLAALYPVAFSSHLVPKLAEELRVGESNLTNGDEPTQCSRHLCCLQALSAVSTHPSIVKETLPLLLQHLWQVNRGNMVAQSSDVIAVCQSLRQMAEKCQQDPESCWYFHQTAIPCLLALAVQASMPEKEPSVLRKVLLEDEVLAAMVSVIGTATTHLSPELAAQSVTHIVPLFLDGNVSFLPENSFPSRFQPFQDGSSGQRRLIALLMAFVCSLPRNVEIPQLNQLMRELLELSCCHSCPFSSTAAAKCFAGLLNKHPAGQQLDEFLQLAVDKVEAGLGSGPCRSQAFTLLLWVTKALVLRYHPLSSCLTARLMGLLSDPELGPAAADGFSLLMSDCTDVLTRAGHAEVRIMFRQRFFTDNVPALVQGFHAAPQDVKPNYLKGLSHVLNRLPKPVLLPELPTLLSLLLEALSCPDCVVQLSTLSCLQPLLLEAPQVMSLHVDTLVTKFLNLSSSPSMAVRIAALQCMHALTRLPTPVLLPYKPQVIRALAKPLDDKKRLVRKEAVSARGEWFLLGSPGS
Put plainly: competitive isoTOP-ABPP, MDA-MB-231 soluble proteome. In kind it is binding. The note with it: 60 min; for R value (isoTOP-ABPP ratio heavy/light) for IA-labeled cysteine of MMS19: 100 μM LDE, peptide LMGLLSDPELGPAAADGFSLLMSDC*TDVLTR.

For assay [2], the target named is T2, IDH1 (Homo sapiens, UniProt O75874).
T2 construct: directly in native proteomes; endogenous in cells; host or cells: MDA-MB-231
T2 sequence (O75874 whole entry): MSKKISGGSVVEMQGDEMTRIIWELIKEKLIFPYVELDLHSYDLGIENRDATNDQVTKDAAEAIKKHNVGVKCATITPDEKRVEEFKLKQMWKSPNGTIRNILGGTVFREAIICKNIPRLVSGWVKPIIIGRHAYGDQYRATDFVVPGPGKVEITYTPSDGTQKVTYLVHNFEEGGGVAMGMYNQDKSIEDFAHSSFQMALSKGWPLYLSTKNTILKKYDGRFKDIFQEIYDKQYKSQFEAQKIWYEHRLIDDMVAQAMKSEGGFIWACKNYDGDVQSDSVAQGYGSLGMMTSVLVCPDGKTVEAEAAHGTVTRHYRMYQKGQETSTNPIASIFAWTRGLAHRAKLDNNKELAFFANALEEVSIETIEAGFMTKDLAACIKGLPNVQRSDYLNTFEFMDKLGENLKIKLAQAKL
Described as above. Format: binding. The note with it: 100 μM LDE, 60 min; peptide SEGGFIWAC*K.

Turning to `CCCCCCCCCCCCC/C=C/C=O` [2-HD, 2-trans-hexadecenal], in assay [1], the “R value (isoTOP-ABPP ratio heavy/light) for IA-labeled cysteine of MMS19” value was 1.1. The “R value (isoTOP-ABPP ratio heavy/light) for IA-labeled cysteine of IDH1” value in assay [2] was 1.13.

Take `CCCCCC(O)/C=C/C=O` (stereo not shown) [4-HNE, 4-Hydroxynonenal]: in assay [1], the “R value (isoTOP-ABPP ratio heavy/light) for IA-labeled cysteine of MMS19” value was found to be 1.78. Also, in assay [2], the “R value (isoTOP-ABPP ratio heavy/light) for IA-labeled cysteine of IDH1” value stood at 1.3.

As for `CCCCC/C=C/C=C1/C(=O)C=C[C@@H]1C/C=C\CCCC(=O)O` [PGJ2, 15-deoxy-Δ12,14-prostaglandin J2], in assay [1], the “R value (isoTOP-ABPP ratio heavy/light) for IA-labeled cysteine of MMS19” value is recorded as more than 15. The “blockade of IA-probe labeling of Cys848 of MMS19” value in assay [1] (100 μM) is recorded as “completely blocked”. The “R value (isoTOP-ABPP ratio heavy/light) for IA-labeled cysteine of IDH1” value in assay [2] was determined as 6.66.
